Results taken from the supplement of paper PMC10883282.

Assays:
Assay in all cases: relative viability vs DMSO control (72 h) (fraction); higher = more viable cells
G401 = system: G401
In short: (§1)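 Densities for seeding sarcoma cell lines into 384-well plates were set to give 80–90% confluence. After 24 h, 2.5 µl of serially diluted compound from source plates of 10 mM to 0.0002 mM went in, and plates stayed 72 h at 37 °C in 5% CO2 with 0.1% DMSO vehicle and a 5 µM positive control. Percent growth from ATPLite readings, averaged over up to triplicate wells, served as relative viability, rescaled so 1 means full and 0 means none.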

HT1080 = system: HT1080
In short: as §1

KHOS-NP = system: KHOS-NP
In short: as §1

MES-SA = system: MES-SA
In short: as §1

RD-ES = system: RD-ES
In short: as §1

RD = system: RD
In short: as §1

SK-ES-1 = system: SK-ES-1
In short: as §1

SK-LMS-1 = system: SK-LMS-1
In short: as §1

SW1353 = system: SW1353
In short: as §1

SW684 = system: SW684
In short: as §1

SW872 = system: SW872
In short: as §1

VA-ES-BJ = system: VA-ES-BJ
In short: as §1

COc1cc(OC)cc(N(CCNC(C)C)c2ccc3ncc(-c4cnn(C)c4)nc3c2)c1 [Erdafitinib]
Details | relative viability
G401, 0.00017 µM | 0.991
G401, 0.00051 µM | 0.976
G401, 0.00152 µM | 0.933
G401, 0.00457 µM | 0.806
G401, 0.01372 µM | 0.707
G401, 0.04115 µM | 0.591
G401, 0.1235 µM | 0.534
G401, 0.3704 µM | 0.472
G401, 1.111 µM | 0.376
G401, 3.333 µM | 0.233
G401, 10 µM | 0.121
HT1080, 0.00017 µM | 1.06
HT1080, 0.00051 µM | 1.09
HT1080, 0.00152 µM | 1.05
HT1080, 0.00457 µM | 1.07
HT1080, 0.01372 µM | 1.02
HT1080, 0.04115 µM | 1.05
HT1080, 0.1235 µM | 1.08
HT1080, 0.3704 µM | 1.06
HT1080, 1.111 µM | 1.02
HT1080, 3.333 µM | 0.959
HT1080, 10 µM | 0.41
KHOS-NP, 0.00017 µM | 1.07
KHOS-NP, 0.00051 µM | 1.06
KHOS-NP, 0.00152 µM | 1.05
KHOS-NP, 0.00457 µM | 1.06
KHOS-NP, 0.01372 µM | 1.04
KHOS-NP, 0.04115 µM | 1.04
KHOS-NP, 0.1235 µM | 1.02
KHOS-NP, 0.3704 µM | 1.01
KHOS-NP, 1.111 µM | 0.999
KHOS-NP, 3.333 µM | 0.943
KHOS-NP, 10 µM | 0.638
MES-SA, 0.00017 µM | 0.911
MES-SA, 0.00051 µM | 0.9276
MES-SA, 0.00152 µM | 0.909
MES-SA, 0.00457 µM | 0.85
MES-SA, 0.01372 µM | 0.837
MES-SA, 0.04115 µM | 0.741
MES-SA, 0.1235 µM | 0.679
MES-SA, 0.3704 µM | 0.667
MES-SA, 1.111 µM | 0.616
MES-SA, 3.333 µM | 0.409
MES-SA, 10 µM | 0.148
RD, 0.00017 µM | 1.05
RD, 0.00051 µM | 1.09
RD, 0.00152 µM | 1.08
RD, 0.00457 µM | 1.08
RD, 0.01372 µM | 1.09
RD, 0.04115 µM | 1.09
RD, 0.1235 µM | 1.13
RD, 0.3704 µM | 1.13
RD, 1.111 µM | 1.11
RD, 3.333 µM | 0.677
RD, 10 µM | 0.269
RD-ES, 0.00017 µM | 0.963
RD-ES, 0.00051 µM | 0.971
RD-ES, 0.00152 µM | 0.929
RD-ES, 0.00457 µM | 0.96
RD-ES, 0.01372 µM | 0.917
RD-ES, 0.04115 µM | 0.873
RD-ES, 0.1235 µM | 0.873
RD-ES, 0.3704 µM | 0.861
RD-ES, 1.111 µM | 0.783
RD-ES, 3.333 µM | 0.5562
RD-ES, 10 µM | 0.148
SK-ES-1, 0.00017 µM | 1.02
SK-ES-1, 0.00051 µM | 1.03
SK-ES-1, 0.00152 µM | 1.04
SK-ES-1, 0.00457 µM | 1
SK-ES-1, 0.01372 µM | 0.957
SK-ES-1, 0.04115 µM | 0.876
SK-ES-1, 0.1235 µM | 0.872
SK-ES-1, 0.3704 µM | 0.818
SK-ES-1, 1.111 µM | 0.702
SK-ES-1, 3.333 µM | 0.33
SK-ES-1, 10 µM | 0.181
SK-LMS-1, 0.00017 µM | 0.987
SK-LMS-1, 0.00051 µM | 0.991
SK-LMS-1, 0.00152 µM | 0.994
SK-LMS-1, 0.00457 µM | 1
SK-LMS-1, 0.01372 µM | 0.999
SK-LMS-1, 0.04115 µM | 0.954
SK-LMS-1, 0.1235 µM | 0.946
SK-LMS-1, 0.3704 µM | 0.913
SK-LMS-1, 1.111 µM | 0.839
SK-LMS-1, 3.333 µM | 0.673
SK-LMS-1, 10 µM | 0.183
SW684, 0.00017 µM | 1.1
SW684, 0.00051 µM | 1.17
SW684, 0.00152 µM | 1.13
SW684, 0.00457 µM | 1.1
SW684, 0.01372 µM | 1.08
SW684, 0.04115 µM | 1.04
SW684, 0.1235 µM | 1.06
SW684, 0.3704 µM | 1.09
SW684, 1.111 µM | 0.998
SW684, 3.333 µM | 0.739
SW684, 10 µM | 0.39
SW872, 0.00017 µM | 1.03
SW872, 0.00051 µM | 1.05
SW872, 0.00152 µM | 1.07
SW872, 0.00457 µM | 1.01
SW872, 0.01372 µM | 0.989
SW872, 0.04115 µM | 0.985
SW872, 0.1235 µM | 0.949
SW872, 0.3704 µM | 0.912
SW872, 1.111 µM | 0.717
SW872, 3.333 µM | 0.5
SW872, 10 µM | 0.274
SW1353, 0.00017 µM | 1.07
SW1353, 0.00051 µM | 1.01
SW1353, 0.00152 µM | 0.975
SW1353, 0.00457 µM | 0.889
SW1353, 0.01372 µM | 0.859
SW1353, 0.04115 µM | 0.853
SW1353, 0.1235 µM | 0.787
SW1353, 0.3704 µM | 0.781
SW1353, 1.111 µM | 0.745
SW1353, 3.333 µM | 0.57
SW1353, 10 µM | 0.0859
VA-ES-BJ, 0.00017 µM | 1.08
VA-ES-BJ, 0.00051 µM | 1.05
VA-ES-BJ, 0.00152 µM | 1.06
VA-ES-BJ, 0.00457 µM | 1.02
VA-ES-BJ, 0.01372 µM | 1.04
VA-ES-BJ, 0.04115 µM | 1.03
VA-ES-BJ, 0.1235 µM | 1.06
VA-ES-BJ, 0.3704 µM | 1.04
VA-ES-BJ, 1.111 µM | 0.92
VA-ES-BJ, 3.333 µM | 0.612
VA-ES-BJ, 10 µM | 0.355
